# Measured values reported in PMC10800023 (Human Molecular Genetics, 2023).
# Assays:
# human P-gp (MDR1) = experiment: MDR1-MDCK permeability / P-gp efflux assay
# Method: (§1) To measure transport by P-gp, Madin-Darby canine kidney (MDCK) cells that had been transfected with the human P-gp (MDR1) gene were plated in a Transwell plate and cultured until polarized. MDCK cells that are not transfected with human P-gp were used as a control. Compounds were added to either the apical or the basolateral side of the cells, and transport across the membrane was measured.
# (§2) Testing for permeability and MDR1 substrate assessment was done in MDCK cells transfected to overexpress human MDR1 gene that encodes efflux transporter protein (P-gp). […] Briefly, cells were maintained in Dulbecco’s modified Eagle medium (DMEM) with 10% fetal bovine serum and 1% penicillin/streptomycin in a humidified incubator at 37°C with 5% CO2. The study was performed by Absorption Systems (now Pharmaron; Exton, PA). The MDR1-MDCK and MDCK control cell lines were seeded into 12-well plates for 7 days. Integrity of monolayer tight junctions was monitored preincubation by transepithelial electrical resistance (TEER) measurement. […] The samples were withdrawn at t = 0 and 60 min from the receiver and donor compartments. Compound levels were measured by LC/MS–MS. Additionally, post-assay, cell monolayer integrity was checked with Lucifer Yellow permeability measurement. Transport assay low- and high-permeability control compounds were run in parallel for assay validation. Papp values were calculated considering compound concentrations across the monolayer and cell surface area. Efflux ratios were calculated based on Papp B > A over Papp A > B. The difference between the MDR1-MDCK and the MDCK cell efflux ratios was also calculated. […] Compounds were classified by Absorption Systems/Pharmaron as follows: […]
# MDCK cells = experiment: MDCK control cell permeability (not transfected with human P-gp); conditions: dog, MDCK-MDR1, 60 min, pH 7.4
# Method: as §1, §2
# P-gp (MDR1) = experiment: MDR1-MDCK permeability / P-gp efflux assay; conditions: MDCK-MDR1, pH 7.4
# Method: as §1, §2
# [1] = MDCK control cell permeability (not transfected with human P-gp); conditions: dog, pH 7.4
# Method: as §1, §2
# [2] = dog, MDCK-MDR1, 60 min, 1 μM, pH 7.4
# [3] = dog, MDCK-MDR1, 60 min, 10 μM, pH 7.4
smiles,measurement,setting,value
CC1=N[C@]2(C(=O)CO)[C@@H](C[C@H]3[C@@H]4CCC5=CC(=O)C=C[C@]5(C)[C@H]4[C@@H](O)C[C@@]32C)O1 [21-Des-deflazacort],Papp values,human P-gp (MDR1); MDCK-MDR1,< 3 ×10⁻⁶ cm/s
same,Apical to Basolateral MDR1-MDCK,human P-gp (MDR1); [2],1.08 10 ^ −6 cm/s
same,Basolateral to Apical MDR1-MDCK,human P-gp (MDR1); [2],72.8 10 ^ −6 cm/s
same,Apical to Basolateral MDR1-MDCK,human P-gp (MDR1); [3],1.11 10 ^ −6 cm/s
same,Basolateral to Apical MDR1-MDCK,human P-gp (MDR1); [3],73.6 10 ^ −6 cm/s
same,Apical to Basolateral MDCK,MDCK cells; 1 μM,12.4 10 ^ −6 cm/s
same,Basolateral to Apical MDCK,MDCK cells; 1 μM,15.5 10 ^ −6 cm/s
same,Apical to Basolateral MDCK,MDCK cells; 10 μM,6.28 10 ^ −6 cm/s
same,Basolateral to Apical MDCK,MDCK cells; 10 μM,8.8 10 ^ −6 cm/s
C[C@]12C=CC(=O)C=C1CC[C@@H]1[C@@H]2C(=O)C[C@@]2(C)[C@H]1CC[C@]2(O)C(=O)CO [Prednisone],Papp at 60 min,P-gp (MDR1),< 3 ×10⁻⁶ cm/s
same,Apical to Basolateral MDR1-MDCK,human P-gp (MDR1); 10 μM,0.499 10 ^ −6 cm/s
same,brain penetration classification,"human P-gp (MDR1); 1 and 10 μM, from Papp (A-to-B) and efflux ratio",low
same,"Papp A→B at 60 min, 1 μM","human P-gp (MDR1); dog, MDCK-MDR1, pH 7.4",0.263 ×10⁻⁶ cm/s
same,"Papp B→A at 60 min, 1 μM","human P-gp (MDR1); dog, MDCK-MDR1, pH 7.4",43.8 ×10⁻⁶ cm/s
same,"Papp B→A at 60 min, 10 μM","human P-gp (MDR1); dog, MDCK-MDR1, pH 7.4",51.8 ×10⁻⁶ cm/s
same,"Papp A→B at 60 min, 1 μM",[1],2.83 ×10⁻⁶ cm/s
same,"Papp A→B at 60 min, 10 μM",[1],2.09 ×10⁻⁶ cm/s
same,"Papp B→A at 60 min, 1 μM",[1],3.42 ×10⁻⁶ cm/s
same,"Papp B→A at 60 min, 10 μM",[1],2.86 ×10⁻⁶ cm/s
C[C@H]1O[C@@H](O[C@H]2[C@@H](O)C[C@H](O[C@H]3[C@@H](O)C[C@H](O[C@H]4CC[C@@]5(C)[C@H](CC[C@@H]6[C@@H]5C[C@@H](O)[C@]5(C)[C@@H](C7=CC(=O)OC7)CC[C@]65O)C4)O[C@@H]3C)O[C@@H]2C)C[C@H](O)[C@@H]1O [digoxin],Papp A→B at 60 min,P-gp (MDR1),0.0521 to 0.0558 ×10⁻⁶ cm/s
same,Papp B→A at 60 min,P-gp (MDR1),19.6 to 20.7 ×10⁻⁶ cm/s
same,efflux ratio at 60 min,P-gp (MDR1),352 to 398
CC(C)NCC(O)COc1cccc2ccccc12 (centres unmarked) [propranolol],Papp at 60 min,P-gp (MDR1),19.7 to 21.4 ×10⁻⁶ cm/s
